# “Also recorded” adds a separate entry of the source.
# Legend:
# Format in all cases: cell-based, human
# [1] = test system: OPA1 isoforms in HeLa cells; test: Pulse-chase experiment of OPA1 isoforms; settings: 20 μM CCCP for 1 hour during chase
# Experimental: HeLa cells were subjected to radioactive labeling of newly synthesized proteins. After labeling cells were washed, incubated for the indicated time in the absence of radiolabeled amino acids (chase) either in the presence or the absence of CCCP (20 μM). Cells were lysed at indicated times of chase and subjected to immunoprecipitation with antibodies raised against OPA1. Elution fractions were analyzed by digital autoradiography (top panel) and the same membrane was subjected to western blot analysis using OPA1 antibodies (bottom panel). The different OPA1 isoforms are indicated by arrows and named L1-, L2-, S3-, S4- and S5-OPA1.
# The large OPA1 isoforms l-OPA1#1 and l-OPA1#2 are converted to the small OPA1 isoforms s-OPA1#3, s-OPA1#4 and/or s-OPA1#5. […] Then cells were washed 3 times with PBS and 1 ml fresh DMEM medium +10% FCS without radioactive methione (chase) was added. Cells were either treated with 20 μM CCCP for 1 hour or not. OPA1 was immunoprecipitated using an antibody raised against the C-terminus of OPA1 and OPA1 was detected by autoradiography and by western-blotting after SDS-PAGE. […] Accordingly, it can be concluded that l-OPA1 isoforms are actually converted to s-OPA1 isofoms, in particular towards s-OPA1#5.
# [2] = test system: OPA1 isoforms in HeLa cells or fibroblasts; test: Uncoupler experiments: OPA1 isoform pattern by western blot; settings: CCCP 20 μM 6 h
# Experimental: (§1) a, HeLa cells and human fibroblasts were treated with CCCP (20 μM) for 6 h and total cell extracts were subjected to western blotting with OPA1 antibodies. b-d, Cells were treated or not (Control) with CCCP (20 μM) for 30 min, washed, and incubated further with medium lacking CCCP for the indicated time periods or CCCP (20 μM) was left for 6 h. In parallel, these experiments were performed in the presence of cycloheximide (CHX; 175 μg/ml). Cells were stained with MitoTracker (red) and with cytochrome c antibodies (green).
# d, OPA1 isoforms by western blot analysis. Extracts of untreated cells (C) and of cells treated for 6 h with CHX alone (+CHX 6 h) were used as controls.
# It was further observed whether dissipation of the membrane potential is sufficient to trigger changes in abundance of OPA1 isoforms and fragmentation of mitochondria. […] Proteolytic processing occurs within mitochondria as shown by cellular fractionation experiments (FIG. 10c). This is specific for OPA1 since degradation of other mitochondrial proteins is not observed (FIG. 10c). Fragmentation of mitochondria occurred rapidly within 15 to 30 min after addition of CCCP (FIG. 9bc). Processing of OPA1 took place within the same narrow time frame (FIG. 9d). Impairment of fusion of mitochondria may therefore be due to rapid inactivation of OPA1 by proteolysis of large isoforms. […]
# [3] = test system: OPA1 isoforms in HeLa cells; test: Ratios of OPA1 isoforms by western blot densitometry, uncoupler experiment
# Experimental: as §1
# Cell pellets were lysed in Lämmli-buffer 1× and heated for 5 min at 95° C. Samples equivalent to ˜10^6 cells were loaded on a 10% acrylamid gel (12 cm high×16 cm wide plates separated by 1.5 mm thick spacers). Gels were run for 3.5 hours at constant 30 mA or until the 37 kD band of the BioRad Precision Plus Protein standard reaches the bottom of the gel. The proteins were transferred to a nitrocellulose membrane by semi-dry blotting for 1.5 hours at 200 mA using Tris/glycine buffer. The membrane was incubated in TBS buffer containing 5% non fat milk powder for 30 min. The membrane was then incubated in TBS buffer containing 5% non fat milk powder and affinity purified rabbit OPA1 antibodies (raised against the C-terminal peptide of OPA1: […] (SEQ ID No: 30)) diluted 1:500 for 1 hour. After three rapid washes to remove the primary antibody in excess, the membrane was further incubated for 1 hour in TBS containing 5% non fat milk powder and secondary antibodies anti rabbit conjugated to HRP (horseradish peroxidase) diluted 1:10,000 (BioRad). The membrane was then washed in TBS, once rapidly, and four more times for 5 min each. ECL reagent (enhanced chemoluminescence reagent) was used to reveal the different OPA1 isoform bands on the membrane. Expositions of 1 to 2 min were usually sufficient to detect all OPA1 forms. The compositions of the buffers and gels to be employed are as follows.
# From the results of the below described uncoupler experiments using HeLa cells (Example 9; FIG. 9a), the ratio of the relative amount of various OPA1 isoforms was determined. For this purpose, total protein extracts were separated by SDS-PAGE and immunoblotted using an antibody raised against the C-terminus of OPA1. The western blot was scanned and densitometrically analysed using standard imaging software. The intensity of each band was determined and the background intensity was subtracted.
# [4] = test system: HeLa cells; test: Uncoupler experiments: mitochondrial morphology and cytochrome c by confocal fluorescence microscopy
# Experimental: b, Quantification of mitochondrial morphology in cells: Tubular, at least one mitochondrial tubule of 5 μm or more; intermediate, at least one between 0.5 and 5 μm but none more than 5 μm; fragmented, none of more than 0.5 μm in length. Error bars represent standard deviation of five slides evaluated.
# as §1
# (§2) Live cells were fluorescently labeled with MitoTracker® Red CMXRos (Molecular probes, USA) for mitochondria or with 4′,6-diamidino-2-phenylindole dihydrochloride (DAPI; Molecular probes, USA) for the nucleus, subsequently fixed, and permeabilised. Immunostaining was carried out with mouse anti-cytochrome c monoclonal antibody (clone 6H2.B4; BD Biosciences) and chicken anti-GFP antibody (Ayes Lab Inc., USA). The following secondary antibodies conjugated to fluorescent dyes were used: Alexa Fluor® 488 anti-mouse IgG (H+L) (Molecular probes, USA), Cy3-conjugated anti-mouse IgG and Fluorescein (FITC)-conjugated anti-chicken IgG (Jackson Immunoresearch, USA). Cells were mounted with Prolong® Gold antifade reagent (Molecular probes, USA). All treatments were done according to the manufacturers' instructions. Mitochondrial morphology was analysed by confocal microscopy using a Zeiss LSM 510 (Carl Zeiss Microscopy, Jena, Germany) equipped with a 63× objective. For all imaging, 512×512 pixel images of single confocal planes were acquired and processed with the Bitplane Imaris 4 software. This technique was particularly employed for FIGS. 5 to 7 and 9 and the corresponding examples.
# [5] = test system: OPA1 processing in HeLa cells; test: Protease inhibitors on uncoupler-induced conversion of larger OPA1 isoforms to smaller isoforms; settings: HeLa cells preincubated 10 min with inhibitor, then CCCP 25 min
# Experimental: a, The protease inhibitor o-phenanthroline (o-Phe) and partially DCI (3,4-Dichloroisocoumarin), but not phenylmethylsulphonylfluoride (PMSF) block uncoupler induced conversion of larger OPA1 isoforms to smaller isoforms. HeLa cells were preincubated for 10 min with or without the protease inhibitors at the indicated concentration before CCCP (20 μM) was added. Cells were further incubated for 25 min before they were harvested, lysed in loading buffer, loaded on a SDS-PAGE, and immunoblotted with OPA1 antibodies.
# [6] = test system: HeLa cells; test: Staurosporine-induced apoptosis: mitochondrial fragmentation, cytochrome c release, OPA1 isoforms; settings: 1 μM staurosporine
# Experimental: HeLa cells were treated with 1 μM staurosporine for the indicated time periods, stained with MitoTracker (red) and with cytochrome c antibodies (green).
# b, Cells were classified. Tubular, at least one mitochondrial tubule of 5 μm or more; intermediate, at least one between 0.5 and 5 μm but none more than 5 μm; fragmented, none of more than 0.5 μm in length. A representative experiment out of three is shown.
# c, Cells were classified for cytochrome c release by immunostaining. Not released, completely colocalised with MitoTracker; intermediate, partly co-localised with MitoTracker; and released, not co-localised with MitoTracker.
# d, OPA1 protein isoforms were determined by western blot analysis of total cell extracts. Total cell extracts (C) and isolated mitochondria (M) from untreated HeLa cells were used as controls.
# as §2
# [7] = HeLa +CCCP (20 μM, 6 h), densitometry of western blot
compound,measurement,setting,value
"N#CC(C#N)=NNc1cccc(Cl)c1 [CCCP, carbonyl cyanide 3-chlorophenylhydrazone]",change of OPA1 isoforms in pulse-chase (autoradiography and western blot),[1],shift from the large isoforms to the short isoforms
same,change of OPA1 isoform pattern,[2],dramatic shift of OPA1 isoforms towards the smaller isoforms
same,OPA1#3 + #4 + #5/ all bands %,[3]; [7],93.0%
same,OPA1#3 + #5/ all bands %,[3]; [7],64.8%
same,OPA1#3/ all bands %,[3]; [7],19.2%
same,OPA1#4/ all bands %,[3]; [7],28.2%
same,OPA1#5/ all bands %,[3]; [7],45.6%
same,fold increase of OPA1#3 + #4 + #5/ all bands,[3]; HeLa +CCCP versus HeLa −CCCP,2.0 fold
same,fold increase of OPA1#3 + #5/ all bands,[3]; HeLa +CCCP versus HeLa −CCCP,3.2 fold
same,fold increase of OPA1#3/ all bands,[3]; HeLa +CCCP versus HeLa −CCCP,1.9 fold
same,fold increase of OPA1#4/ all bands,[3]; HeLa +CCCP versus HeLa −CCCP,1.0 fold
same,fold increase of OPA1#5/ all bands,[3]; HeLa +CCCP versus HeLa −CCCP,4.4 fold
same,time to fragmentation of mitochondria after addition,[4]; CCCP 20 μM,15 to 30 min
same,mitochondrial morphology upon removal of the uncoupler,"[4]; CCCP 20 μM 30 min, then washed",normal mitochondrial morphology was recovered
same,cytochrome c release,[4]; CCCP treatment,not accompanied by cytochrome c release
"O=c1oc(Cl)c(Cl)c2ccccc12 [DCI, 3,4-Dichloroisocoumarin]",block of uncoupler (CCCP 20 μM) induced proteolytic processing of OPA1,[5],(at least partially) blocked
"O=S(=O)(F)Cc1ccccc1 [PMSF, phenylmethylsulphonylfluoride]",block of uncoupler (CCCP 20 μM) induced proteolytic processing of OPA1,[5],not
C[C@@H]1C[C@@H]([C@H](O)CC2CC(=O)NC(=O)C2)C(=O)[C@@H](C)C1 [cycloheximide],recovery of tubular mitochondrial network and reappearance of large OPA1 isoforms after CCCP removal,[4]; CHX 175 μg/ml,impaired
same,effect on uncoupler-induced fragmentation and OPA1 processing,[4]; CHX 175 μg/ml with CCCP 20 μM,did not interfere
c1cnc2c(c1)ccc1cccnc12 [o-phenanthroline],block of uncoupler (CCCP 20 μM) induced proteolytic processing of OPA1,[5],block; also recorded: (at least partially) blocked
same,block of uncoupler (CCCP 20 μM) induced proteolytic processing of OPA1,[5]; listed as ortho-phenanthroline,inhibited
CN[C@@H]1C[C@H]2O[C@@](C)([C@@H]1OC)n1c3ccccc3c3c4c(c5c6ccccc6n2c5c31)C(=O)NC4 [staurosporine],time to fragmentation of mitochondria,[6],2 to 3 h
same,cells that released cytochrome c,[6]; only after 5-6 h,more than 50%
same,change of OPA1 isoforms,[6]; western blot,disappearance of the two largest OPA1 isoforms

# Reference: patent publication US20100209436A1, “METHOD FOR TREATING DISEASES RELATED TO MITOCHONDRIAL DYSFUNCTION” (priority 2007, published 2010)
